Experimental data as given in publication PMC9011347, “Small-Molecule Inhibitors Targeting Lipolysis in Human Adipocytes” (Journal of the American Chemical Society, 2022).

Assays:
Assay in all cases: TAG hydrolase assay, Expi293 lysates expressing ATGL orthologue
Type in all cases: biochemical
[1] = target: T1, rat ATGL (Rattus norvegicus, UniProt P0C548)
T1 construct: host or cells: Expi293 cells, crude lysate
From the text: (§1) We previously developed Atglistatin (Ai), a selective inhibitor of mouse ATGL,[31],[32] which is ineffective against human ATGL.[17] Ai acts as a competitive inhibitor targeting the minimal active domain of ATGL ranging from aa 1–254.[33] This domain is highly conserved in different mammalian species (∼90% identity, Table 1) and comprises the patatin-like domain, eponymous for all members of the patatin-like phospholipase domain-containing (PNPLA) protein family.[34] We first investigated the species selectivity of Ai by performing TAG hydrolase assays[35] with lysates from Expi293 cells expressing ATGL orthologues of different species. The activity of ATGL is strongly stimulated by the co-activator protein comparative gene identification-58 (CGI-58, also known as α/β hydrolase domain containing 5, ABHD5)[36] and can be suppressed by the inhibitory protein G0/G1 switch 2 (G0S2).[37] We therefore determined ATGL activity in the presence and absence of mouse CGI-58, mouse G0S2, and Ai. As shown in Figure 1a–i, all ATGL orthologues were expressed, enzymatically active, stimulated by mouse CGI-58, and inactivated by mouse G0S2. Ai inhibited mouse (Figure 1a), rat (Figure 1b), goat (Figure 1c), dog (Figure 1e), and marmoset ATGL (Figure 1f), but not pig (Figure 1d), rhesus monkey (Figure 1g), or human ATGL (Figure 1h).
(§2) Experimental details, materials, and methods
(§3) Expression of recombinant ATGL constructs and preparation of cell lysates. Expi293 cells were cultivated in Expi293 Expression Medium (GIBCO, Thermo Fisher Scientific, Waltham, USA) at standard conditions (37°C, 5% CO2, 95% humidified atmosphere, 125 rpm). DNA constructs containing ATGL from different species and chimeric ATGL variants in pcDNA3.1(+)myc-His C Vector were obtained from BioCat GmbH (Heidelberg, Germany). Cells were transfected with ExpiFectamine293 Transfection Kit (GIBCO) in Opti-Mem reduced serum medium (GIBCO) according to the manufacturer’s instructions. After 48 h, cells were harvested by centrifugation and washed three times with PBS. Cells were disrupted in buffer A (0.25 M sucrose, 1 mM EDTA, 1 mM dithiothreitol, 20µg/ml leupeptin, 2 µg/ml antipain, 1 µg/ml pepstatin, pH 7.0) by sonication (Virsonic 475, Virtis, Gardiner, USA). Nuclei and debris were removed by centrifugation at 1,000 g and 4°C for 10 min. Protein concentrations were determined using Bio-Rad protein assay (Bio-Rad 785, Bio-Rad Laboratories, Munich, Germany) using BSA as standard.
(§4) Expression and purification of mouse CGI-58. CGI-58 was expressed and purified as described 1. In brief, the coding sequence of mouse Cgi-58 was cloned into pHis-Sumo and co-transformed with the plasmid pTf16 expressing the chaperone Tig into E. coli BL21(DE3). Cells were cultured overnight at 37°C and 180 rpm in the presence of 40 µg/ml kanamycin and 34 µg/ml chloramphenicol. Thereafter, cells were transferred into fresh LB medium, grown until OD600 of 0.6, and expression was induced by the addition of 0.5 mM IPTG. After overnight incubation at 30°C, cells were harvested at 4,500 x g and 4°C for 20 min, washed in 1x PBS, and resuspended in lysis buffer (20 mM Tris/HCl pH 7.8, 300 mM NaCl, 30 mM imidazole, 0.1% IGEPAL CA-630, 3.5 mM β-mercaptoethanol, 20 µg/ml leupeptin, 2 µg/ml antipain and 1 µg/ml pepstatin). Cells were incubated with 1 mg/ml lysozyme at 4°C for 20 min, disrupted by sonication, and lysates were centrifuged at 30,000 x g and 4°C for 40 min. His-CGI-58 was purified from the supernatant using an ÄKTA pure system (Cytiva, Uppsala, Sweden) equipped with a 5 ml HisTrap […]
(§5) Expression and purification of mouse G0S2. Chemically competent E. coli ArcticExpress (DE3) cells were transformed with the pST50-SMT3-TEV-mG0S2-His expression plasmid, plated on LB agar plates containing 100 ampicillin, and incubated […] overnight at 37°C. The next day, 10 ml LB medium supplemented with 100 μg/ml ampicillin, 20 μg/ml gentamycin and 2% glucose were inoculated with a single colony and incubated overnight at 37°C. […]

[2] = test system: goat ATGL
From the text: as §1, §2, §3, §4, §5

[3] = test system: marmoset ATGL
From the text: as §1, §2, §3, §4, §5

[4] = target: T2, mouse ATGL (Mus musculus, UniProt Q8BJ56)
T2 construct: host or cells: Expi293 cells, crude lysate
T2 sequence (Q8BJ56 whole entry): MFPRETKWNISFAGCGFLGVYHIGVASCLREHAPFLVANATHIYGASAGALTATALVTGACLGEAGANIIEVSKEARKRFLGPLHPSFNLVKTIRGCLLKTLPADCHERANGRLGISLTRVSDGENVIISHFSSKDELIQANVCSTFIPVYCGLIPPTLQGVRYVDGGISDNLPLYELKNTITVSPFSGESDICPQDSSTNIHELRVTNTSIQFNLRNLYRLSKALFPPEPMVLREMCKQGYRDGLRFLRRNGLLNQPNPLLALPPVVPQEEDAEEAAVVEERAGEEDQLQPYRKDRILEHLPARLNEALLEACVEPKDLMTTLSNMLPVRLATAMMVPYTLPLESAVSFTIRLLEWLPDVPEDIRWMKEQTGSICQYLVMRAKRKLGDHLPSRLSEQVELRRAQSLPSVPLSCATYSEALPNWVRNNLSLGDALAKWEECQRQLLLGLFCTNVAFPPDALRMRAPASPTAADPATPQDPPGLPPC
From the text: as §1, §2, §3, §4, §5

[5] = test system: dog ATGL
From the text: as §1, §2, §3, §4, §5

T1 sequence (P0C548 whole entry): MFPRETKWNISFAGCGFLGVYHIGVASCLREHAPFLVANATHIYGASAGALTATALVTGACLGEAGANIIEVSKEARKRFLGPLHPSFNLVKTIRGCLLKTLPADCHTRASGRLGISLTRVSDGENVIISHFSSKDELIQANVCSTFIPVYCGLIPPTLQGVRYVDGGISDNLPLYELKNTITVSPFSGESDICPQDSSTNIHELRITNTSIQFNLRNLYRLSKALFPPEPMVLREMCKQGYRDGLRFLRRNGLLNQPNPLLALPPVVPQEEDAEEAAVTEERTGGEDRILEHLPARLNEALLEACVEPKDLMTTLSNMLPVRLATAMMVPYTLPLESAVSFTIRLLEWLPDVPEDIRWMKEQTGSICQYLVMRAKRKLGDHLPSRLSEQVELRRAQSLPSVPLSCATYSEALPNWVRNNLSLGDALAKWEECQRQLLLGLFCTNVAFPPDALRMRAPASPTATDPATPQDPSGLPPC

CN(C)C(=O)Nc1cccc(-c2ccc(N(C)C)cc2)c1 [Atglistatin, reference compound]
inhibited: inhibition of TAG hydrolase activity ([1]; Atglistatin (Ai) 40 μM) | inhibition of TAG hydrolase activity ([2]; Atglistatin (Ai) 40 μM) | inhibition of TAG hydrolase activity ([3]; Atglistatin (Ai) 40 μM) | inhibition of TAG hydrolase activity ([4]; Atglistatin (Ai) 40 μM) | inhibition of TAG hydrolase activity ([5]; Atglistatin (Ai) 40 μM)

CCOc1ccc(-c2cc(OC)cc(C(=O)OC(C)C)n2)cc1 [NG-497]
less than 20%: reduction in TAG hydrolase activity ([1]; NG-497 50 μM) | reduction in TAG hydrolase activity ([2]; NG-497 50 μM) | reduction in TAG hydrolase activity ([3]; NG-497 50 μM) | reduction in TAG hydrolase activity ([4]; NG-497 50 μM) | reduction in TAG hydrolase activity ([5]; NG-497 50 μM)
